Our source for the GI50 and TGI values is PubChem BioAssay (NCI).

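Each compound was tested at five concentrations against cells in 96-well plates for 48 hours. The concentration for 50% growth inhibition is given as GI50. Definition used: TGI = concentration required for complete inhibition of growth.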 A value given as a limit tells only on which side of the number the result lay.

Test systems include NCI-H522 lung; K-562 leukemia; SF-268 CNS; A498 renal; SF-295 CNS; EKVX NSCLC; SK-MEL-2 melanoma; T-47D breast; SW-620 colon; HCT-116 colon.
Common to all, as to experiment: NCI anticancer screen, dose series, 48 h

In the case of `COC(=O)c1cncc(/C=C/c2c(C)cc(O)cc2C)c1`, the GI50 in the experiment on NCI-H522 lung was 5.67 µM; in the experiment on K-562 leukemia it was 2.32 µM; in the experiment on SF-268 CNS, 14.1 µM; in the experiment with A498 renal it was 11 µM; in the experiment on SF-295 CNS, over 19.1 µM; in the experiment on EKVX NSCLC it was over 17.3 µM. Further, the GI50 in the experiment with SK-MEL-2 melanoma is 8.31 µM; with T-47D breast, 11 µM; in the experiment on SW-620 colon, 8.63 µM; in the experiment on HCT-116 colon, 14.2 µM. Further, the TGI in the experiment on NCI-H522 lung is 17.1 µM; in the experiment with K-562 leukemia, over 19 µM; with SF-268 CNS, over 25 µM; in the experiment with A498 renal it was over 25 µM; with SF-295 CNS, over 25 µM; with EKVX NSCLC, over 25 µM. The TGI is 22.1 µM in the experiment with SK-MEL-2 melanoma, over 22.2 µM in the experiment on T-47D breast, over 25 µM in the experiment on SW-620 colon and over 25 µM with HCT-116 colon.
Regarding `COc1cc2nc(-c3cc(F)ccc3O)nc(N[C@@H]3CNC[C@H]3C(C)(C)O)c2cc1OC`, the GI50 was 1.67 µM in the experiment on NCI-H522 lung; 1.6 µM in the experiment on K-562 leukemia; 1.32 µM in the experiment with SF-268 CNS; 1.12 µM with A498 renal; 1.98 µM with SF-295 CNS; 1.44 µM in the experiment with EKVX NSCLC. Further, the GI50 with SK-MEL-2 melanoma is 1.59 µM; in the experiment on T-47D breast it was 2.06 µM; in the experiment on SW-620 colon, 1.82 µM; in the experiment on HCT-116 colon, 1.35 µM. Further, the TGI in the experiment on NCI-H522 lung was found to be 3.11 µM; with K-562 leukemia it was 3.94 µM; in the experiment with SF-268 CNS, 2.75 µM; with A498 renal it was 2.6 µM; in the experiment on SF-295 CNS, 4.14 µM; in the experiment on EKVX NSCLC, 3.02 µM. The TGI is 3.12 µM in the experiment with SK-MEL-2 melanoma, 3.98 µM with T-47D breast, 3.39 µM in the experiment on SW-620 colon and 2.75 µM with HCT-116 colon.
With `C=CCN1CC(=O)N2[C@@H](Cc3ccc(O)cc3F)C(=O)N(Cc3cccc(N4CC(N5CCN(CC)CC5)C4)n3)C[C@@H]2N1C(=O)NCc1ccccc1`, the GI50 was 0.0284 µM with NCI-H522 lung; 0.0397 µM in the experiment with K-562 leukemia; 0.0348 µM in the experiment on SF-268 CNS; under 0.0118 µM in the experiment with A498 renal; 0.0965 µM in the experiment with SF-295 CNS; 0.278 µM with EKVX NSCLC. In addition, the GI50 in the experiment with SK-MEL-2 melanoma is 0.0435 µM; in the experiment on T-47D breast, 0.0339 µM; in the experiment on SW-620 colon, 0.107 µM; in the experiment on HCT-116 colon, 0.0325 µM. The TGI with K-562 leukemia was over 100 µM; in the experiment on SF-268 CNS, over 100 µM; in the experiment with A498 renal it was 0.0666 µM; in the experiment with SF-295 CNS, 1.02 µM; in the experiment on EKVX NSCLC, over 100 µM; with SK-MEL-2 melanoma it was 0.476 µM. For the same molecule, the TGI in the experiment with T-47D breast, in the experiment on SW-620 colon and in the experiment with HCT-116 colon was over 100 µM in each case.
With `Cc1ccc(-c2nc([P+](c3ccccc3)(c3ccccc3)c3ccccc3)c(S(=O)(=O)c3ccc(C)cc3)o2)cc1`, the GI50 with NCI-H522 lung was 1.6 µM; with K-562 leukemia, 0.312 µM; with SF-268 CNS, 1.55 µM; in the experiment with A498 renal it was 1.61 µM; with SF-295 CNS, 2.91 µM; with EKVX NSCLC it was 1.21 µM. Further, the GI50 in the experiment with SK-MEL-2 melanoma is 2.17 µM; in the experiment on T-47D breast, 1.99 µM; with SW-620 colon it was 0.929 µM; in the experiment on HCT-116 colon, 1.37 µM. For the same molecule, the TGI was determined as 3.67 µM in the experiment on NCI-H522 lung; 3.22 µM in the experiment on K-562 leukemia; 2.97 µM in the experiment on SF-268 CNS; 4.77 µM in the experiment on A498 renal; 10.7 µM in the experiment on SF-295 CNS; 2.98 µM in the experiment on EKVX NSCLC. For the same molecule, the TGI in the experiment on SK-MEL-2 melanoma is 4.41 µM; with T-47D breast, 5.23 µM; in the experiment with SW-620 colon, 2.47 µM; in the experiment with HCT-116 colon it was 2.75 µM.
`c1ccc(CCc2cccnc2)nc1`: the TGI in the experiment with NCI-H522 lung, with K-562 leukemia, in the experiment with SF-268 CNS, in the experiment with A498 renal, in the experiment with SF-295 CNS and with EKVX NSCLC was over 100 µM each time. In addition, the TGI in the experiment with SK-MEL-2 melanoma, with T-47D breast, in the experiment on SW-620 colon and in the experiment with HCT-116 colon was over 100 µM each time.
As for `COc1cc2c(cc1OCCCCN1CCN(C(=S)SCCC(C#N)(c3ccccc3)c3ccccc3)CC1)N=C[C@@H]1CCCN1C2=O`, the GI50 is 0.196 µM with NCI-H522 lung; 3.29 µM in the experiment on K-562 leukemia; 1.19 µM in the experiment on A498 renal; 1.88 µM with EKVX NSCLC; 1.04 µM in the experiment on SK-MEL-2 melanoma; 0.578 µM in the experiment on T-47D breast. Moreover, the TGI in the experiment with NCI-H522 lung is 0.642 µM; in the experiment with K-562 leukemia, over 100 µM; in the experiment on A498 renal, 2.81 µM; in the experiment with EKVX NSCLC it was 5.74 µM; in the experiment with SK-MEL-2 melanoma, 2.35 µM; in the experiment with T-47D breast, over 100 µM.
In the case of `C#CCNC(=O)[C@H](CC)[C@H]1CC[C@H](C)[C@H]([C@@H](C)[C@H](O)[C@H](C)C(=O)[C@H](CC)C2O[C@]3(C=CC(=O)[C@]4(CC[C@@](C)([C@H]5CC[C@](O)(CC)[C@H](C)O5)O4)O3)[C@H](C)C[C@@H]2C)O1` (some centres not stated), the GI50 was 1.87 µM with NCI-H522 lung; 2.08 µM with SF-268 CNS; 2.19 µM with A498 renal; 1.57 µM with SF-295 CNS; 2.59 µM with EKVX NSCLC; 2.44 µM with SK-MEL-2 melanoma. The GI50 is 2.36 µM with T-47D breast, 3.12 µM with SW-620 colon and 2.43 µM in the experiment on HCT-116 colon. Moreover, the TGI is 5.39 µM in the experiment on NCI-H522 lung; 6.37 µM with SF-268 CNS; 6.07 µM with A498 renal; 3.56 µM with SF-295 CNS; over 100 µM with EKVX NSCLC; 7.31 µM with SK-MEL-2 melanoma. Also, the TGI in the experiment on T-47D breast was 9 µM; in the experiment on SW-620 colon it was over 100 µM; with HCT-116 colon, 7.66 µM.
As for `C(=N/N(Cc1ccccc1)Cc1ccccc1)/c1ccccc1`, the GI50 is over 100 µM in the experiment with NCI-H522 lung; over 100 µM with SF-268 CNS; 94.9 µM in the experiment on A498 renal; 44.5 µM in the experiment with SF-295 CNS; 59.3 µM in the experiment with EKVX NSCLC; 25 µM with SK-MEL-2 melanoma. Besides, the values for the GI50 in the experiment on T-47D breast, in the experiment with SW-620 colon and in the experiment with HCT-116 colon were 72.4 µM, over 100 µM and 26.1 µM, respectively. Further, the TGI with NCI-H522 lung is over 100 µM; in the experiment with SF-268 CNS, over 100 µM; in the experiment on A498 renal it was over 100 µM; with SF-295 CNS, over 100 µM; in the experiment on EKVX NSCLC, over 100 µM; with SK-MEL-2 melanoma, 72.6 µM. The TGI in the experiment with T-47D breast, with SW-620 colon and in the experiment on HCT-116 colon was over 100 µM throughout.
